In patent US9162975B2, “Phenyl carbamate compounds for use in alleviating or treating pain” (Bio-Pharm Solutions Co., Ltd., priority 2011, dated 2015):

Assays:
ICR mice [1] = assay: Hot-plate test; type: in vivo; conditions: withdrawal latency relative to vehicle control, 150 mg/kg po, hot plate 55±1° C.
Protocol: To examine the pain relief effect of the phenyl carbamate compounds, a hot-plate test was conducted in general pain animal model referring to Current Protocols in Neuroscience; Behavioral Neuroscience Unit 8.9.
(§1) ICR mice (male, 30-35 g; Orient Bio, Korea) were habituated before test in test room for 1 hour Animals were fasted 2 hr before administration of compounds. Each of Compound 1, 2, 3, 4, 5, 63, 65, and 67 was orally administered at the dose of 150 mg/kg, 10 ul/g, bw (n=7˜10/group). All compounds were dissolved in a vehicle of 30% (v/v) PEG 400 or 20% (v/v) Tween 80. The control group was treated the vehicle without compounds.
0.5 hr after the administration of compounds, the mice were put on a hot plate pre-heated to 55±1° C. (Hu, X. et al, 2008), and then, measured as the withdrawal latency (cut-off time: 30 sec) time until the point when each mouse was taking off a paw from the plate, shaking, licking a paw or hind leg, or jumping from the plate.

ICR mice [2] = assay: Writhing test (acetic acid); type: in vivo; conditions: number of writhes relative to vehicle control, 20 mg/kg po, 0.6% acetic acid
Protocol: To examine the pain relief effect of the phenyl carbamate compounds, a writhing test was conducted in general pain animal model referring to Fischer, L. G. et al. (2008).
as §1, with “24-28” for “30-35”, “hr,” for “hr”, “20” for “150”, “(n=3˜5/group).” for “(n=7˜10/group).”
One hour after the administration of Compounds, 0.6% acetic acid at the dose of 10 ul/g, bw was injected into the mice. Animals were habituated in the cage for 5 min 5 min after habituation, the number of writhes (abdominal constriction) for 15 min was counted referring to Korzeniewska-Rybicka, I. et al. (1998) and compared with that of a control.

mice = assay: Measurement of neurotoxicity (rotarod); type: in vivo; conditions: protective index, ratio of TD50 to ED50 in MES
Protocol: The measurement of neurotoxicity of the test compounds was conducted by the method of Dunham and Miya [Dunham, N. W. and Miya, T. S. 1957. A note on a simple apparatus for detecting neurological deficit in rats and mice. J. Am. Pharm. Assoc. (Baltimore) 46: 208-209]. In the method, motor abilities of the test animals can be determined by observing whether the test animals can walk without falling from a rotator, thereby determining the value of neurotoxicity of each compound. […] They were pre-trained on the rotarod (Rotarod; Columbus instrument, rota-max, USA) at 6 rpm for 5 min 24 hr prior to the test. The peak time was determined by administration test material's random dose for 0.5, 1, 2, 4 hour. […] The ratio of TD50 to ED50 (TD50/ED50) is called as a protective index, and useful as a parameter for comparison of pharmaceutical efficacy and neurotoxicity.

SNL model in rats = assay: Antiallodynic activity on Chung model (SNL, spinal nerve ligation), von Frey; type: in vivo, Sprague-Dawley rats; conditions: paw withdrawal threshold relative to sham, 50 mg/kg p.o.
Protocol: Male Sprague-Dawley rats (200-220 g, Orient Bio, Korea) were habituated for 1 week before the experiment and allowed free access to food and water throughout the experimentation. Room temperature and humidity were maintained at 24±2° C. and 50±10%, respectively. Neuropathic surgery (SNL, Spinal nerve ligation) model was done as described in Kim and Chung (1992). Briefly, animal under gaseous anesthesia with isoflurane a 4:4 flow ratio of NO2. The left lumber spinal nerve L5 and L6 were isolated and tightly ligated with 4˜0 silk thread. The wound was treated with a gentamicin antibiotics solution (4 mg/kg, 4 ul/g, bw), and the wound muscle was closed with cat cut chrome 4/0 thread and skin was closed dafilon 4/0 tread. Sham controls were prepared in the same manner as the spinal nerves were exposed, but no ligated L5 and L6 nerves. But, vehicle controls were identical to SNL model, except for administration of vehicles.
Tactile sensitivity (Mechanical allodynia) was evaluated using von Frey monofilaments before and after treatment and animals were used withdrawal threshold value was less than 4 g. […] The tactile sensitivity for ipsilateral hind paw was measured using the up-and-down method (Dixon, 1980) with seven von Frey monofilaments (0.4, 1, 2, 4, 6, 8, and 15 g) to 3 trials. […] The 50% paw withdrawal threshold for each paw was calculated using the following formula: [Xth] log=[vFr] log+ky where [vFr] is the force of the last von Frey used, k=0.2249 which is the average interval (in log units) between the von Frey monofilaments, and y is a value that depends upon the pattern of withdrawal responses (Dixon, 1980).
All animals were fasted 18 h before the administration of the compounds. Antiallodynic effect of compounds of Examples 1, 63 and 65 were evaluated at the dose of 5, 10 and 30 mg/kg (n=5˜6), orally administrated in a volume of 5 ul/g, bw in a vehicle of 30% (v/v) PEG 400 (Examples 1 and 63) or 20% (v/v) Tween 80 (Example 65). […]

SMILES | Hot-plate test (150 mg/kg, 0.5 h, po) % Control (ICR mice [1]) [%] | Writhing test (20 mg/kg, 1 h, po) % Control (ICR mice [2]) [%] | PI(TD50/ED50 in MES) (mice) | SNL (50 mg/kg, 1 h, p.o.) % Control (SNL model in rats) [%]
CC(OC(N)=O)C(O)c1ccccc1Cl (racemic) [Example 3, 1-(2-chlorophenyl)-1-hydroxypropyl-2-carbamate] | 120.5 | 84.8 | 12.0 | –
C[C@@H](OC(N)=O)[C@H](O)c1ccccc1Cl [Example 2, 1-(2-chlorophenyl)-(R)-1-hydroxypropyl-(R)-2-carbamate] | 129.8 | 73.8 | 7.3 | –
C[C@@H](OC(N)=O)[C@@H](O)c1ccccc1Cl [Example 4, 1-(2-chlorophenyl)-(S)-1-hydroxypropyl-(R)-2-carbamate] | 108.2 | 75.5 | – | –
C[C@H](OC(N)=O)[C@H](O)c1ccccc1Cl [Example 5, 1-(2-chlorophenyl)-(R)-1-hydroxypropyl-(S)-2-carbamate] | 145.5 | 66.6 | 3.3 | –
C[C@H](OC(N)=O)[C@@H](O)c1c(Cl)cccc1Cl [Example 37, 1-(2,6-dichlorophenyl)-(S)-1-hydroxypropyl-(S)-2-carbamate] | – | – | 5.1 | –
C[C@H](OC(N)=O)[C@@H](O)c1ccccc1F [Example 63, 1-(2-fluorophenyl)-(S)-1-hydroxypropyl-(S)-2-carbamate] | 183.1 | 63.9 | – | 55.4
C[C@H](OC(N)=O)[C@@H](O)c1ccccc1I [Example 65, 1-(2-iodophenyl)-(S)-1-hydroxypropyl-(S)-2-carbamate] | 104.1 | 60.6 | – | 76.8
CC[C@H](OC(N)=O)[C@@H](O)c1ccccc1I [Example 67, 1-(2-iodophenyl)-(S)-1-hydroxybutyl-(S)-2-carbamate] | 131.4 | 68.3 | – | –
